Here are results for 2 molecules from US20150224094A1, “ADMINISTRATION OF ACETYLCHOLINESTERASE INHIBITORS TO MITIGATE NEUROTOXIN-INDUCED PARALYSIS AND RESIDUAL NEUROMUSCULAR BLOCKADE” (priority 2012, published 2015).

The subject of data set [1] is mivacurium-induced neuromuscular blockade. As to the kind of experiment: Reversal of experimental mivacurium paralysis in a human by intranasal neostigmine aerosol. The procedure:
Intravenous mivacurium is administered to a subject at concentrations of 5-200 mcg/kg/min to induce a safe, stable, low level neuromuscular block for a medical procedure. After completion of the procedure a total of 4 to 30 mg of neostigmine in divided doses—each dose separated by 15 minutes ([…] a 5% or a 6% solution) is administered intra-nasally and the regression of the block is followed quantitatively using acceleromyography or clinical measures such as the improvement in muscle strength as measured by thumb adduction, handgrip strength, teeth clenching, head raising and/or swallowing.
Neuromuscular block was quantified by using the train-of-four (TOF) ratio at the left adductor pollicis (AP) muscle measured by acceleromyography and as described previously. When the subject had significant oropharyngeal weakness and met electrophysiological criteria for Level 3 block a single dose of […] IV glycopyrrolate was administered to prevent bradycardia. Five minutes later 6% neostigmine dissolved in sterile water was administered using a primed atomizer (LMA MAD Nasal Device, LMA Corporation North America, San Diego, Calif.). A total dose of 27.6 mg, 0.37 mg/kg with half the volume insufflated in each nostril was given and the subject was left undisturbed for a total period of 10 min (Shaded area, FIG. 2) except for acceleromyographic recording. After the final set of measurements, the mivacurium infusion was terminated and neuromuscular function was allowed to return spontaneously. Emergency equipment and drugs including IV neostigmine and edrophonium (for reversal of mivacurium block) and glycopyrrolate and atropine (for early treatment of neostigmine toxicity) were at the bedside at all times.
Clinical measures of muscle function emphasized those that would be seen in the setting of neurotoxic envenomation that could be readily measured in out-of-hospital settings. The clinical assessments of muscle function were as follows: visual acuity, ease of swallowing, ability to protrude the tongue, diction, and ability to raise the head completely off the bed for more than 5 sec (neck flexion) with a postal scale (WeighMax, Industrial City, Calif., USA) placed under the subjects head to confirm complete elevation and peak respiratory flow measured using a Tru-Zone Peak Flow Meter (Monaghan, Plattsburg, N.Y.). […] The subject was blinded to all clinical and acceleromyographic data as well as to the mivacurium infusion rate and the levels of neuromuscular blockade.
The mivacurium infusion was maintained with unchanged infusion rate, enabling the investigators to determine the characteristics of neostigmine effect. Analysis of TOF ratios were made using TOFMON software (Schering-Plough Corporation, Kenilworth, N.J.) and considered stable if the values obtained 10 min apart differed less than 5% and accounting for repeated measures. Student's t-test results were calculated and reported as average values, standard deviation (SD), and 95% confidence intervals (95% CI).

Data set [2] can be described thus: Intra-nasal administration of glycopyrrolate and neostigmine, tolerability in a healthy volunteer. The procedure:
In this experiment, the effect of intra-nasal administration of an mAChR inhibitor (glycopyrrolate) was determined using a healthy volunteer. 5 cc of glycopyrrolate (0.2 mg/mL) in sterile water was instilled in one nostril using an LMA sponge atomizer. […] 5 cc of 0.2 mg/mL glycopyrrolate mixed in DMSO was instilled in the other nostril.

For data set [3], the system named is Naja naja (Indian cobra) venom. As to the kind of experiment: Intranasal neostigmine in experimental Naja naja envenomation in mice. Format: in vivo. As for the experimental part:
After pilot studies to assess the potency of reconstituted N. naja venom, 20 mice (21-28 g) were pseudo-randomized to receive IP injections of N. naja venom (approximately 2.5×LD50 for mice, Total N=20).
After 10 minutes, 15 animals received 5 microliters of 0.5 mg/mL neostigmine by nasal administration. Animals were observed continuously for 12 hours and assessed for signs of toxicity including respiratory distress, loss of spontaneous locomotor activity with the endpoint being death. Surviving animals were euthanized after 12 hours. Comparison of time to euthanasia across groups was performed and represented in Kaplan-Meier curves
Swiss albino mice were envenomed with cobra toxin (Naja naja) by intraperitoneal injection at doses >2.5×the LD50 and that killed 100% of untreated mice “LD100”. Intranasal neostigmine was given 10 minutes after envenomation to determine if this intervention could delay or treat the envenomation. 10/15 mice recovered completely and were still behaving normally >12 hours after envenoming. 5/15 mice in the treatment group died compared to 5/5 (100%) of the envenomation group. Mice were treated only once, with no attempt to re-treat with intranasal neostigmine.

Data set [4] relates to myasthenic patients. The settings on record: cited from earlier work.
The subject of data set [5] is krait bite (Bungarus sp.). As to the kind of experiment: Case report: intranasal neostigmine aerosol for residual weakness after suspected krait bite. Format: in vivo, human. The settings on record: single dose 0.5 cc aqueous 5% neostigmine intranasal aerosol. An excerpt: A healthy person was sleeping on a mud platform in their village and was awakened by a snake biting their left forearm. Within minutes, they developed headache and throat discomfort. They were transported by their family from the local clinic to the Emergency Department, conscious, but with progressive weakness. On physical examination, they had complete loss of gag reflex and rapidly worsening shortness of breath. There was no fang mark, ecchymosis or local swelling, and there were no other signs of coagulopathy such as bleeding gums or hematuria. They were unable to open their eyes and became unresponsive as emergent intubation was being performed without sedation. Polyvalent anti-snake venom (ASV) was administered concurrently. Based on the pattern of symptoms, lack of coagulopathy, normal renal function and normal bleeding and clotting times as well as lack of physical evidence of snakebite, krait bite (Bungarus sp.) was suspected. Twenty-four hours after ASV therapy and continuous mechanical ventilation, they were awake and alert, but with residual weakness, including profound ptosis, bilateral 6th nerve palsies and inability to lift their neck. […] Intranasal neostigmine was administered every four hours thereafter with IV atropine as prophylaxis against cholinergic toxicity. […]

Where [6] appears, read: intranasal neostigmine, constant mivacurium infusion.
The mark [7] stands for this setting: 3 cc of 1 mg/mL neostigmine into one nostril, after 2nd dose of glycopyrrolate.

Each structure is given as a SMILES string. Values joined by “and” are separate entries in the source; they are usually repeats but may differ in a detail not shown here. Identical values can stand only once. “Also recorded” adds a separate entry of the source.

With `C[N+]1(C)CCC(OC(=O)C(O)(c2ccccc2)C2CCCC2)C1` (stereo not shown) [glycopyrrolate], in data set [1] (IV glycopyrrolate), the “reversal of neostigmine-associated bradycardia” value is on record as “easily reversed”. Moreover, the “effect on heart rate” value in data set [2] (5 cc glycopyrrolate 0.2 mg/mL in sterile water, one nostril, LMA sponge atomizer) was “no effect”; in data set [2] (5 cc of 0.2 mg/mL glycopyrrolate mixed in DMSO, other nostril) it was “no notable effect”. Also, the “effect on nasal membranes” value in data set [2] (intranasal glycopyrrolate, noted prior to neostigmine) was “mild drying”.
On to `CN(C)C(=O)Oc1cccc([N+](C)(C)C)c1` [neostigmine], for which, in data set [3] (5 uL of 0.5 mg/mL IN neostigmine, 2.5× the 100% lethal dose (LD100) of Naja naja venom), the “mice whose lives were prolonged or saved” value is 5/5. Besides, the “effect on survival time” value in data set [3] (5 uL of 0.5 mg/mL IN neostigmine, of Naja naja) is listed as “trended toward prolonging the lives”. Besides, the “time to death or euthanasia” value in data set [3] (IN neostigmine N=15, controls 193 minutes) was 553 min. Further, the “condition of surviving animals” value in data set [3] (IN neostigmine after N. naja venom) was “completely normal by 6 hours”. For the same molecule, the “mice that died in the treatment group” value in data set [3] (IN neostigmine, 5/5 died in envenomation group) is recorded as 5/15. Further, the “animals surviving / recovered of treated” value in data set [3] (single dose 5 uL of 0.5 mg/mL IN neostigmine 10 min after IP N. naja venom (approx. 2.5×LD50, 100% lethal in controls), 12 h observation) was 10 of 15 and 10/15. Besides, the survival in data set [3] (single dose IN neostigmine 10 min after IP N. naja venom, N=15) stood at 67%. Moreover, the “clinical effect in myasthenic patients” value in data set [4] (6% neostigmine methylsulfate intranasal, doses spaced by 15 minutes, alternating nostrils) is recorded as “salutary effects usually after the first dose”. In addition, in data set [4] (intranasal neostigmine at 15 minute intervals), the “puffs tolerated without ill effect” value is recorded as “up to 5 puffs”. In addition, the “local tolerability of intranasal spray” value in data set [1] (6% neostigmine by atomizer) was “no stinging sensation or irritation”. For the same molecule, the “Normalized TOF ratios (mean ± SD), adductor pollicis” value in data set [1] (after intranasal 6% neostigmine 27.6 mg (0.37 mg/kg), constant mivacurium infusion 2.5 mcg/kg/min, pre-neostigmine 0.56) turned out to be 0.64±0.03. For the same molecule, in data set [1] (after intranasal neostigmine, 135 min), the “Peak flow of baseline by the termination of the mivacurium infusion” value is on record as 95%. Besides, the “peak improvement adductor pollicis TOF ratio” value in data set [1] (after intranasal neostigmine, constant mivacurium infusion) is reported as 0.70. The “time to feeling of facial and lingual muscles rearranging and tightening” value in data set [1] (after receiving intranasal neostigmine) is ≤ 5 min. In addition, the “time to full recovery of neck flexion” value in data set [1] (first test of neck flexion following neostigmine administration) came out at 5 min. Besides, in data set [1] (setting [6]), the “clinically important muscular deficits / neuromuscular blockade” value is given as “quickly relieved all clinically important muscular deficits; also recorded: antagonized the neuromuscular blockade” and the “time to full recovery of ability to swallow after neostigmine administration” value is reported as ≤ 10 min. For the same molecule, the “bradycardia and concurrent symptoms” value in data set [1] (just prior to stopping the mivacurium infusion and after) is on record as “asymptomatic bradycardia”. Besides, the “Peak Flow, average after neostigmine, of baseline” value in data set [1] (response to intranasal neostigmine, 72% under stable blockade) is listed as 91%. Moreover, in data set [1] (response to intranasal neostigmine, >20/200 under stable blockade), the “Visual Acuity” value is “Steady improvement and 20/20”. In addition, the “Ease of Swallowing” value in data set [1] (response to intranasal neostigmine, Difficult under stable blockade) was “Easy”. In data set [1] (response to intranasal neostigmine, Moderately Difficult under stable blockade), the “Tongue Protrusion” value was “Easy”. Moreover, the Diction result in data set [1] (response to intranasal neostigmine, Poor under stable blockade) is listed as “Improved”. Further, in data set [1] (response to intranasal neostigmine, Present under stable blockade), the “Jaw Ptosis” value is listed as “None”. The “Neck Flexion (Head Raise >5 s)” value in data set [1] (response to intranasal neostigmine, Unable under stable blockade) was “Easy”. For the same molecule, the “signs or symptoms of muscarinic-mediated toxicity” value in data set [1] (while the mivacurium infusion was running) is recorded as “no signs or symptoms”. Moreover, in data set [2] (setting [7]), the “effect on heart rate” value is “no effect” and the salivation result is on record as “no increase”. Further, in data set [5], the 6th nerve palsies entry was “almost complete recovery”. For the same molecule, the “time to complete resolution of ptosis” value in data set [5] (24 h after ASV) is ≤ 30 min.
